# According to patent US6440963B1, “Use of selective COX-2 inhibitors for the treatment of urinary incontinence” (Recordati S.A., Chemical and Pharmaceutical Company, priority 2001, dated 2002):
# Experiments:
# [1] = system: rhythmic bladder voiding contractions; experiment: Volume-induced rhythmic bladder voiding contractions in anaesthetized rats; type: in vivo, rat; conditions: for Bladder quiescence (min ± S.E.): 60 min observation; for ED10 min (dose inducing a 10 min absence of bladder contractions) / Potency in inhibiting bladder voiding contractions (ED10min) compared with morphine: i.v.; for ED10 min (dose inducing a 10 min absence of bladder contractions): linear regression analysis; for Potency in inhibiting bladder voiding contractions (ED10min) compared with morphine: relative to morphine
# Protocol: In this method, the urinary bladder is catheterized through the external urethra with a polyethylene tubing filled with physiological saline. The external urethra is then ligated and connected to a pressure recording device. […] Test compounds are then administered intravenously and their effect evaluated for the following 60 min.
# The animals were housed with free access to food and water and maintained on a 12 h alternating light-dark cycle at 22-24° C. for at least one week, except during the experiment. […] The catheter was then tied in place with a ligature around the external urethral orifice and connected to a conventional pressure transducer (Statham P23 ID/P23 XL). […] The bladder was then filled via the recording catheter with incremental volumes of warm (37° C.) saline until reflex bladder voiding contractions occurred (usually upon addition of 0.8-1.5 ml saline).
# Bioactivity was assessed in individual animals (using 6-10 rats per dose) by measuring the duration of bladder quiescence (i.e., the duration of time during which no contractions occurred) over a 60 min period.
# detrusor instability = conditions: cited from earlier work; for Effect in patients with detrusor instability: double-blind controlled studies; for Gastrointestinal side effects: patients with detrusor instability
# bladder reflexes = conditions: following surgery or experimentally-induced inflammation; cited from earlier work
# [2] = system: bladder contractions elicited by arachidonic acid; conditions: arachidonic acid on serosal surface of bladder; cited from earlier work
# [3] = system: isolated rat bladder strips; conditions: 1×10^−4M, 40 mM potassium; cited from earlier work
structure (smiles),measurement,setting,value
Cc1ccc(-c2cc(C(F)(F)F)nn2-c2ccc(S(N)(=O)=O)cc2)cc1 [Compound B],Bladder quiescence (min ± S.E.),[1]; 0.01 mg/kg i.v.,4.05 ± 0.68 min
same,Bladder quiescence (min ± S.E.),[1]; 0.1 mg/kg i.v.,10.53 ± 2.04 min
same,Bladder quiescence (min ± S.E.),[1]; 1.0 mg/kg i.v.,28.35 ± 5.19 min
same,ED10 min (dose inducing a 10 min absence of bladder contractions),[1],ED10 min = 0.044 mg/kg
same,Potency in inhibiting bladder voiding contractions (ED10min) compared with morphine,[1],similar
CS(=O)(=O)c1ccc(C2=C(c3ccccc3)C(=O)OC2)cc1 [Compound C],Bladder quiescence (min ± S.E.),[1]; 0.03 mg/kg i.v.,3.75 ± 0.96 min
same,Bladder quiescence (min ± S.E.),[1]; 0.1 mg/kg i.v.,4.85 ± 1.80 min
same,Bladder quiescence (min ± S.E.),[1]; 0.3 mg/kg i.v.,16.44 ± 6.13 min
same,ED10 min (dose inducing a 10 min absence of bladder contractions),[1],ED10 min = 0.135 mg/kg
same,Potency in inhibiting bladder voiding contractions (ED10min) compared with morphine,[1],slightly lower
COc1ccc2c(c1)c(CC(=O)O)c(C)n2C(=O)c1ccc(Cl)cc1 [Indomethacin],Bladder quiescence (min ± S.E.),[1]; 0.3 mg/kg i.v.,4.39 ± 1.08 min
same,Bladder quiescence (min ± S.E.),[1]; 1.0 mg/kg i.v.,7.91 ± 1.79 min
same,Bladder quiescence (min ± S.E.),[1]; 3.0 mg/kg i.v.,35.00 ± 5.78 min
same,ED10 min (dose inducing a 10 min absence of bladder contractions),[1],ED10 min = 0.652 mg/kg
same,Effect in patients with detrusor instability,detrusor instability,favorable effects
same,Gastrointestinal side effects,detrusor instability,high incidence of gastrointestinal side effects
CN1CC[C@]23c4c5ccc(O)c4O[C@H]2[C@@H](O)C=C[C@H]3[C@H]1C5 [Morphine],Bladder quiescence (min ± S.E.),[1]; 0.01 mg/kg i.v.,2.76 ± 0.93 min
same,Bladder quiescence (min ± S.E.),[1]; 0.03 mg/kg i.v.,6.89 ± 2.11 min
same,Bladder quiescence (min ± S.E.),[1]; 0.1 mg/kg i.v.,13.83 ± 2.40 min
same,Bladder quiescence (min ± S.E.),[1]; 0.3 mg/kg i.v.,18.17 ± 3.60 min
same,ED10 min (dose inducing a 10 min absence of bladder contractions),[1],ED10 min = 0.050 mg/kg
CS(=O)(=O)Nc1ccc([N+](=O)[O-])cc1OC1CCCCC1 [NS-398],Effect on bladder reflexes,bladder reflexes,normalized bladder reflexes
C[C@H](C(=O)O)c1cccc(C(=O)c2ccccc2)c1 [dexketoprofen],Effect on bladder contractions elicited by arachidonic acid,[2],blocked
CC(C(=O)O)c1ccc(-c2ccccc2)c(F)c1 (centres unmarked) [flurbiprofen],Effect in patients with detrusor instability,detrusor instability,favorable effects
same,Gastrointestinal side effects,detrusor instability,high incidence of gastrointestinal side effects
CS(=O)(=O)Nc1ccc([N+](=O)[O-])cc1Oc1ccccc1 [nimesulide],Inhibition of contractility,[3],42%
